Source: ChEMBL document CHEMBL4480368, “Synthesis and potential antineoplastic activity of dehydroabietylamine imidazole derivatives” (Medchemcomm, 2018)
Calls of active or inactive are those of the source. The rule behind the calls is not given here.

What was measured:
HeLa = assay: Antineoplastic activity against human HeLa cells measured after 36 hrs by MTT assay; type: functional, cell-based
HepG2 = assay: Antineoplastic activity against human HepG2 cells measured after 36 hrs by MTT assay; type: functional, cell-based; details: HepG2, 36 h
MCF7 [1] = assay: Antineoplastic activity against human MCF7 cells measured after 36 hrs by MTT assay; type: functional, cell-based; details: MCF7, 36 h
A549 [2] = assay: Antineoplastic activity against human A549 cells measured after 36 hrs by MTT assay; type: functional, cell-based; details: A549, 36 h
HUVEC [3] = assay: Cytotoxicity against HUVEC measured after 36 hrs by MTT assay; type: cell-based; details: Homo sapiens
Salmon testes DNA [4] = assay: Binding affinity to Salmon sperm DNA assessed as hypochromic shift at 5 x 10^-5M by absorption spectra analysis; type: nucleic-acid assay; details: Salmonidae
A549 [5] = assay: Induction of apoptosis in human A549 cells assessed as decrease in viable cells after 24 hrs by Annexin V-FITC/propidium iodide staining based flow cytometry; type: functional, cell-based
A549 [6] = assay: Induction of apoptosis in human A549 cells assessed as increase in apoptotic cells after 24 hrs by Annexin V-FITC/propidium iodide staining based flow cytometry; type: functional, cell-based
A549 [7] = assay: Induction of apoptosis in human A549 cells assessed as early apoptotic cells at 1 ug/ml after 24 hrs by Annexin V-FITC/propidium iodide staining based flow cytometry (reference value: 6.09%); type: functional
A549 [8] = assay: Induction of apoptosis in human A549 cells assessed as early apoptotic cells at 2 ug/ml after 24 hrs by Annexin V-FITC/propidium iodide staining based flow cytometry (reference value: 6.09%); type: functional
A549 [9] = assay: Induction of apoptosis in human A549 cells assessed as early apoptotic cells at 5 ug/ml after 24 hrs by Annexin V-FITC/propidium iodide staining based flow cytometry (reference value: 6.09%); type: functional
MCF7 [10] = assay: Induction of apoptosis in human MCF7 cells assessed as early apoptotic cells at 1 ug/ml after 24 hrs by Annexin V-FITC/propidium iodide staining based flow cytometry (reference value: 2.83%); type: functional
MCF7 [11] = assay: Induction of apoptosis in human MCF7 cells assessed as early apoptotic cells at 5 ug/ml after 24 hrs by Annexin V-FITC/propidium iodide staining based flow cytometry (reference value: 2.83%); type: functional
MCF7 [12] = assay: Induction of apoptosis in human MCF7 cells assessed as early apoptotic cells at 0.1 ug/ml after 24 hrs by Annexin V-FITC/propidium iodide staining based flow cytometry (reference value: 2.83%); type: functional
[13] = Drug internalization in human HeLa cells at 100 nM incubated for 2 hrs at 4 degC by confocal fluorescence imaging analysis; type: ADME, cell-based; details: 0.1 µM
MCF7 [14] = assay: Induction of apoptosis in human MCF7 cells assessed as decrease in viable cells after 24 hrs by Annexin V-FITC/propidium iodide staining based flow cytometry; type: functional, cell-based
MCF7 [15] = assay: Induction of apoptosis in human MCF7 cells assessed as increase in apoptotic cells after 24 hrs by Annexin V-FITC/propidium iodide staining based flow cytometry; type: functional, cell-based
Salmon testes DNA [16] = assay: Binding affinity to Salmon sperm DNA assessed as DNA intercalation at 1.5 x 10^-5M by ethidium bromide staining based fluorescence assay; type: nucleic-acid assay; details: Salmonidae
HUVEC [17] = assay: Cytotoxicity against HUVEC; type: cell-based; details: Homo sapiens

SMILES	IC50 (HeLa) [µM]	IC50 (HepG2) [µM]	IC50 (MCF7 [1]) [µM]	IC50 (A549 [2]) [µM]	IC50 (HUVEC [3]) [µM]	Activity (Salmon testes DNA [4])	further results
CC(C)c1ccc2c(c1)CC[C@H]1[C@](C)(CNC(=O)c3cncn3C)CCC[C@]21C	20.9	12	2.17	53.2	57.8	Active	
CC(C)c1ccc2c(c1)CC[C@H]1[C@](C)(CN)CCC[C@]21C.O=C(O)c1nc[nH]c1C(=O)O [listing 1 of 2 here]							Activity (A549 [5]): Dose-dependent effect; Activity (A549 [6]): Dose-dependent effect
COc1cccc2c1C(=O)c1c(O)c3c(c(O)c1C2=O)C[C@@](O)(C(=O)CO)C[C@@H]3O[C@H]1C[C@H](N)[C@H](O)[C@H](C)O1 [DOXORUBICIN]	3.55		14	3.35	4.4		
CC(C)c1ccc2c(c1)CC[C@H]1[C@](C)(CNC(=O)c3ncn(C)c3C(=O)O)CCC[C@]21C	16.8	6.52	12.1	12.3	33	Active	
CC(C)c1ccc2c(c1)CC[C@H]1[C@](C)(CN)CCC[C@]21C.O=C(O)c1nc[nH]c1C(=O)O [listing 2 of 2 here]	18.7	4.62	6.47	1.85	1.21		Activity (A549 [7]): 12.47%; Activity (A549 [8]): 30.64%; Activity (A549 [9]): 76.86%
CC(C)c1ccc2c(c1)CC[C@H]1[C@](C)(CN)CCC[C@]21C.CC(C)c1ccc2c(c1)CC[C@H]1[C@](C)(CN)CCC[C@]21C.O=C(O)c1nc[nH]c1C(=O)O [listing 1 of 2 here]	2.88	2.91	0.75	4.37	3.98		Activity (MCF7 [10]): 39.49%; Activity (MCF7 [11]): 54.21%; Activity (MCF7 [12]): 25.4%
CC(C)c1ccc2c(c1)CC[C@H]1[C@](C)(CN)CCC[C@]21C							Drug uptake [13]: Not Active
CC(C)c1ccc2c(c1)CC[C@H]1[C@](C)(CN)CCC[C@]21C.CC(C)c1ccc2c(c1)CC[C@H]1[C@](C)(CN)CCC[C@]21C.O=C(O)c1nc[nH]c1C(=O)O [listing 2 of 2 here]						Active	Activity (MCF7 [14]): Dose-dependent effect; Activity (MCF7 [15]): Dose-dependent effect; Activity (Salmon testes DNA [16]): Active
O=c1[nH]cc(F)c(=O)[nH]1 [FLUOROURACIL]							IC50 (HUVEC [17]): 11.7 µM
CC(C)c1ccc2c(c1)CC[C@H]1[C@](C)(CNC(=O)c3ncn(C)c3C(=O)NC[C@]3(C)CCC[C@]4(C)c5ccc(C(C)C)cc5CC[C@@H]34)CCC[C@]21C	48.5	50.5	9.85	17	44.9	Active	
